{
  "source": "patent US20230069722A1",
  "about": "“TUBULYSINS AND PROTEIN-TUBULYSIN CONJUGATES” (priority 2020, published 2023)",
  "tested_on": "HCT15 cells",
  "test": "MDR cell based killing assay, HCT15 cells with or without Verapamil (CellTiter-Glo)",
  "design": "species or system human",
  "settings": "Homo sapiens",
  "protocol": "To test the ability of the disclosed tubulysin payloads or prodrug payloads to kill human cell lines, an in vitro cytotoxicity assay can be performed. In vitro cytotoxicity of the disclosed payloads, as well as reference compounds, are evaluated using the CellTiter-Glo Assay Kit (Promega, Cat # G7573), in which the quantity of ATP present is used to determine the number of viable cells in culture. For the assay, C4-2, HEK293, or T47D cells are seeded at 4000 cells/well on Nunclon white 96-well plates in complete growth medium (DME high glucose:Ham's F12 at 4:1, 10% FBS, 100 units/ml Penicillin, 100 ug/ml streptomycin, 53 ug/ml glutatmine, 10 ug/ml insulin, 220 ng/ml biotin, 12.5 pg/ml T3, 12.5 ug/ml Adenine, 4 ug/ml transferrin for C42 cells; DME high glucose, 10% FBS, 100 units/ml Penicillin, 100 ug/ml streptomycin, 53 ug/ml glutatmine for HEK293; RPMI, 10% FBS, 100 units/ml Penicillin, 100 ug/ml streptomycin, 53 ug/ml glutatmine, 10 ug/ml insulin, 10 mM HEPEs, 200 nM Sodium Pyruvate for T47D cells) and grown overnight at 37° C. in 5% CO2. For cell viability curves, 1:3 serially diluted payloads are added to the cells at final concentrations ranging from 100 nM to 15 pM, including a no treatment control group, and are then incubated for 5 days. After the 5-day incubation, cells are incubated at room temperature with 100 μL of CellTiter-Glo reagents for 10 minutes. Relative luminescence units (RLU) can be determined on a Victor plate reader (PerkinElmer). The IC50 values are determined from a four-parameter logistic equation over a 10-point response curve (GraphPad Prism). All IC50 values are expressed in molar (M) concentration. The percent cell killing (% kill) at the maximum concentration tested is estimated from the following formula (100−% viable cells). Averages±standard deviation (SD) can be included where replicate experiments are performed.\nIn vitro cytotoxicity of the disclosed payloads as well as reference compounds are evaluated similarly as described above except using 1000 HCT15 cells, a colorectal carcinoma cell line, in growth medium (RPMI, 10% FBS, 100 units/ml Penicillin, 100 ug/ml streptomycin, 53 ug/ml glutatmine) with or without 5 ug/mL of Verapamil.\nFor each payload or prodrug payload, the HCT-15 IC50 in the absence of Verapamil is divided by the HCT-15 IC50 in the presence of Verapamil (HCT-15 IC50/HCT-15+Verapamil IC50). […] The reference compound, (MMAE), can have a ratio of 23.7. […]",
  "key": {"[1]": {"settings": "HCT-15, read-out: HCT-15 with verapamil IC50"}},
  "note": "Where two headings read alike, the source gives them in different places.",
  "data": [
    {"compound": "CCCCCCN(C(=O)[C@@H](NC(=O)[C@H]1CCCCN1C)[C@@H](C)CC)[C@H](C[C@@H](OC(=O)NCCOCCOCCOCCN)c1nc(C(=O)N[C@@H](Cc2ccc(F)cc2)CC(C)(C)C(=O)O)cs1)C(C)C", "note": "[Compound P11, (4S)-4-({2-[(1R,3R)-1-{[(2-{2-[2-(2-aminoethoxy)ethoxy]ethoxy}ethyl)carbamoyl]oxy}-3-[(2S,3S)—N-hexyl-3-methyl-2-{[(2R)-1-methylpiperidin-2-yl]formamido}pentanamido]-4-methylpentyl]-1,3-thiazol-4-yl}formamido)-5-(4-fluorophenyl)-2,2-dimethylpentanoic Acid]", "values": [
      {"measurement": "IC50", "setting": "HCT-15, read-out: HCT-15 IC50", "result": 157000, "unit": "pM"}
    ]},
    {"compound": "CCCCCCN(C(=O)[C@@H](NC(=O)[C@H]1C[C@H](C)CCN1)[C@@H](C)CC)[C@H](C[C@@H](OCC)c1nc(C(=O)N[C@@H](Cc2ccc(N)c(F)c2)CC(C)(C)C(=O)O)cs1)C(C)C", "note": "[Compound P17, (4S)-5-(4-amino-3-fluorophenyl)-4-({2-[(1R,3R)-1-ethoxy-3-[(2S,3S)—N-hexyl-3-methyl-2-{[(2R,4R)-4-methylpiperidin-2-yl]formamido}pentanamido]-4-methylpentyl]-1,3-thiazol-4-yl}formamido)-2,2-dimethylpentanoic Acid]", "values": [
      {"measurement": "IC50", "setting": "HCT-15, read-out: HCT-15 IC50", "result": 5170, "unit": "pM"},
      {"measurement": "IC50", "setting": "[1]", "result": 670, "unit": "pM"}
    ]},
    {"compound": "CCCCCCN(C(=O)[C@@H](NC(=O)[C@@]1(C)CCCN1)[C@@H](C)CC)[C@H](C[C@@H](OC(C)=O)c1nc(C(=O)N[C@@H](Cc2ccc(O)cc2)CC(C)(C)C(=O)O)cs1)C(C)C", "note": "[Compound P22, (4S)-4-({2-[(1R,3R)-1-(acetyloxy)-3-[(2S,3S)—N-hexyl-3-methyl-2-{[(2R)-2-methylpyrrolidin-2-yl]formamido}pentanamido]-4-methylpentyl]-1,3-thiazol-4-yl}formamido)-5-(4-hydroxyphenyl)-2,2-dimethylpentanoic Acid]", "values": [
      {"measurement": "IC50", "setting": "HCT-15, read-out: HCT-15 IC50", "result": 270, "unit": "pM"},
      {"measurement": "IC50", "setting": "[1]", "result": 80, "unit": "pM"}
    ]},
    {"compound": "C#CCCCON(C(=O)[C@@H](NC(=O)[C@H]1CCCCN1C)[C@@H](C)CC)[C@H](C[C@@H](OC(C)=O)c1nc(C(=O)N[C@@H](Cc2ccc(NC(=O)CNC(=O)CN)cc2)CC(C)(C)C(=O)O)cs1)C(C)C", "note": "[Compound P39, (4S)-4-({2-[(1R,3R)-1-(acetyloxy)-4-methyl-3-[(2S,3S)-3-methyl-2-{[(2R)-1-methylpiperidin-2-yl]formamido}-N-(pent-4-yn-1-yloxy)pentanamido]pentyl]-1,3-thiazol-4-yl}formamido)-5-{4-[2-(2-aminoacetamido)acetamido]phenyl}-2,2-dimethylpentanoic Acid]", "values": [
      {"measurement": "IC50", "setting": "HCT-15, read-out: HCT-15 IC50", "result": 620, "unit": "pM"}
    ]},
    {"compound": "CCCCCCN(C(=O)[C@@H](NC(=O)[C@H]1CCCCN1C)[C@@H](C)CC)[C@H](C[C@@H](OC(C)=O)c1nc(C(=O)N[C@@H](Cc2ccc(F)cc2)CC(C)(C)C(=O)NS(=O)(=O)c2ccc(CN)cc2)cs1)C(C)C", "note": "[Compound P46, (1R,3R)-1-(4-{[(2S)-4-{[4-(aminomethyl)benzenesulfonyl]carbamoyl}-1-(4-fluorophenyl)-4,4-dimethylbutan-2-yl]carbamoyl}-1,3-thiazol-2-yl)-3-[(2S,3S)—N-hexyl-3-methyl-2-{[(2R)-1-methylpiperidin-2-yl]formamido}pentanamido]-4-methylpentyl Acetate]", "values": [
      {"measurement": "IC50", "setting": "HCT-15, read-out: HCT-15 IC50", "result": "> 100000", "unit": "pM"}
    ]},
    {"compound": "CCCCCCN(C(=O)[C@@H](NC(=O)[C@H]1CCCCN1C)[C@@H](C)CC)[C@H](C[C@@H](OCC)c1nc(C(=O)NS(=O)(=O)Cc2ccc(N)cc2)cs1)C(C)C", "note": "[Compound P45, N-[(4-aminophenyl)methanesulfonyl]-2-[(1R,3R)-1-ethoxy-3-[(2S,3S)—N-hexyl-3-methyl-2-{[(2R)-1-methylpiperidin-2-yl]formamido}pentanamido]-4-methylpentyl]-1,3-thiazole-4-carboxamide]", "values": [
      {"measurement": "IC50", "setting": "HCT-15, read-out: HCT-15 IC50", "result": 75700, "unit": "pM"}
    ]},
    {"compound": "C#CCCCON(C(=O)[C@@H](NC(=O)[C@@]1(C)CCCN1)[C@@H](C)CC)[C@H](C[C@@H](OC(C)=O)c1nc(C(=O)N[C@@H](Cc2ccc(N)c(F)c2)CC(C)(C)C(=O)O)cs1)C(C)C", "note": "[Compound P35, (4S)-4-({2-[(1R,3R)-1-(acetyloxy)-4-methyl-3-[(2S,3S)-3-methyl-2-{[(2R)-2-methylpyrrolidin-2-yl]formamido}-N-(pent-4-yn-1-yloxy)pentanamido]pentyl]-1,3-thiazol-4-yl}formamido)-5-(4-amino-3-fluorophenyl)-2,2-dimethylpentanoic Acid]", "values": [
      {"measurement": "IC50", "setting": "HCT-15, read-out: HCT-15 IC50", "result": 4870, "unit": "pM"}
    ]},
    {"compound": "CCCCCCN(C(=O)[C@@H](NC(=O)[C@H]1CCCCN1C)[C@@H](C)CC)[C@H](C[C@@H](OC(C)=O)c1nc(C(=O)N[C@@H](Cc2ccc(F)cc2)CC(C)(C)C(=O)O)cs1)C(C)C", "note": "[Compound P10, (4S)-4-({2-[(1R,3R)-1-(acetyloxy)-3-[(2S,3S)—N-hexyl-3-methyl-2-{[(2R)-1-methylpiperidin-2-yl]formamido}pentanamido]-4-methylpentyl]-1,3-thiazol-4-yl}formamido)-5-(4-fluorophenyl)-2,2-dimethylpentanoic Acid]", "values": [
      {"measurement": "IC50", "setting": "HCT-15, read-out: HCT-15 IC50", "result": 240, "unit": "pM"},
      {"measurement": "IC50", "setting": "[1]", "result": 90, "unit": "pM"}
    ]},
    {"compound": "CCCCCCN(C(=O)[C@@H](NC(=O)[C@H]1CCCCN1C)[C@@H](C)CC)[C@H](C[C@@H](OC(C)=O)c1nc(C(=O)NS(=O)(=O)Cc2ccc(N)cc2)cs1)C(C)C", "note": "[Compound P44, (1R,3R)-1-(4-{[(4-aminophenyl)methanesulfonyl]carbamoyl}-1,3-thiazol-2-yl)-3-[(2S,3S)—N-hexyl-3-methyl-2-{[(2R)-1-methylpiperidin-2-yl]formamido}pentanamido]-4-methylpentyl Acetate]", "values": [
      {"measurement": "IC50", "setting": "HCT-15, read-out: HCT-15 IC50", "result": 25800, "unit": "pM"}
    ]},
    {"compound": "CCCCCCN(C(=O)[C@@H](NC(=O)[C@H]1CCCCN1C)[C@@H](C)CC)[C@H](C[C@@H](O)c1nc(C(=O)N[C@@H](Cc2ccc(N)c(F)c2)CC(C)(C)C(=O)O)cs1)C(C)C", "note": "[Compound P1, (4S)-5-(4-amino-3-fluorophenyl)-4-({2-[(1R,3R)-3-[(2S,3S)—N-hexyl-3-methyl-2-{[(2R)-1-methylpiperidin-2-yl]formamido}pentanamido]-1-hydroxy-4-methylpentyl]-1,3-thiazol-4-yl}formamido)-2,2-dimethylpentanoic Acid]", "values": [
      {"measurement": "IC50", "setting": "HCT-15, read-out: HCT-15 IC50", "result": 3000, "unit": "pM"},
      {"measurement": "IC50", "setting": "[1]", "result": 260, "unit": "pM"}
    ]},
    {"compound": "CCCCCCN(C(=O)[C@@H](NC(=O)[C@@]1(C)CCCN1)[C@@H](C)CC)[C@H](C[C@@H](OC(C)=O)c1nc(C(=O)N[C@@H](Cc2ccc(N)c(F)c2)CC(C)(C)C(=O)O)cs1)C(C)C", "note": "[Compound P15, (4S)-4-({2-[(1R,3R)-1-(acetyloxy)-3-[(2S,3S)—N-hexyl-3-methyl-2-{[(2R)-2-methylpyrrolidin-2-yl]formamido}pentanamido]-4-methylpentyl]-1,3-thiazol-4-yl}formamido)-5-(4-amino-3-fluorophenyl)-2,2-dimethylpentanoic Acid]", "values": [
      {"measurement": "IC50", "setting": "HCT-15, read-out: HCT-15 IC50", "result": 1010, "unit": "pM"},
      {"measurement": "IC50", "setting": "[1]", "result": 190, "unit": "pM"}
    ]},
    {"compound": "CCCCCON(C(=O)[C@@H](NC(=O)[C@H]1CCCCN1)[C@@H](C)CC)[C@H](C[C@@H](OC(C)=O)c1nc(C(=O)N[C@@H](Cc2ccc(N)cc2)CC(C)(C)C(=O)O)cs1)C(C)C", "note": "[Compound P36, (4S)-4-({2-[(1R,3R)-1-(acetyloxy)-4-methyl-3-[(2S,3S)-3-methyl-N-(pentyloxy)-2-[(2R)-piperidin-2-ylformamido]pentanamido]pentyl]-1,3-thiazol-4-yl}formamido)-5-(4-aminophenyl)-2,2-dimethylpentanoic Acid]", "values": [
      {"measurement": "IC50", "setting": "HCT-15, read-out: HCT-15 IC50", "result": 12200, "unit": "pM"}
    ]},
    {"compound": "C#CCCCON(C(=O)[C@@H](NC(=O)[C@H]1CCCCN1C)[C@@H](C)CC)[C@H](C[C@@H](OC(C)=O)c1nc(C(=O)N[C@@H](Cc2ccc(O)cc2)CC(C)(C)C(=O)O)cs1)C(C)C", "note": "[Compound P51, (4S)-4-({2-[(1R,3R)-1-(acetyloxy)-4-methyl-3-[(2S,3S)-3-methyl-2-{[(2R)-1-methylpiperidin-2-yl]formamido}-N-(pent-4-yn-1-yloxy)pentanamido]pentyl]-1,3-thiazol-4-yl}formamido)-5-(4-hydroxyphenyl)-2,2-dimethylpentanoic Acid]", "values": [
      {"measurement": "IC50", "setting": "HCT-15, read-out: HCT-15 IC50", "result": 410, "unit": "pM"},
      {"measurement": "IC50", "setting": "[1]", "result": 160, "unit": "pM"}
    ]},
    {"compound": "CCCCCCN(C(=O)[C@@H](NC(=O)[C@H]1CCCCN1C)[C@@H](C)CC)[C@H](C[C@@H](NC(C)=O)c1nc(C(=O)N[C@@H](Cc2ccc(N)cc2)CC(C)(C)C(=O)O)cs1)C(C)C", "note": "[Compound P9, (4S)-5-(4-aminophenyl)-4-({2-[(1R,3R)-1-acetamido-3-[(2S,3S)—N-hexyl-3-methyl-2-{[(2R)-1-methylpiperidin-2-yl]formamido}pentanamido]-4-methylpentyl]-1,3-thiazol-4-yl}formamido)-2,2-dimethylpentanoic Acid]", "values": [
      {"measurement": "IC50", "setting": "HCT-15, read-out: HCT-15 IC50", "result": 2070, "unit": "pM"},
      {"measurement": "IC50", "setting": "[1]", "result": 300, "unit": "pM"}
    ]}
  ]
}
